Measured values: ChEMBL document CHEMBL1201862, “PubChem BioAssay data set” (2004)
Several values for one entry are separate records, joined by “and”; a condition that tells them apart may be missing. Equal entries are not always repeated.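 Step 1: Grow cells in 96-well plates. Step 2: Expose to compound for 48 hours at 5 concentrations. Step 3: Interpolate endpoints linearly; if unreached, use highest concentration. GI50: concentration for 50% inhibition of growth.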 Activity calls are given as the source filed them. No stated cut-off is given here; in the data, active = GI50 up to about 1.1 µM and inactive = higher.

Columns and labels:
Assay in all cases: DTP human tumour cell line panel, 48 h
[1] = system: 786-0
[2] = system: A498
[3] = system: HCC 2998
[4] = system: HOP-62
[5] = system: LXFL 529
[6] = system: M14
[7] = system: NCI-H23
[8] = system: NCI-H522
[9] = system: OVCAR-4
[10] = system: SF-539
[11] = system: SK-MEL-28
[12] = system: SK-OV-3
[13] = system: SN12C
[14] = system: U-251
[15] = system: UACC-62
[16] = system: LOX IMVI
[17] = system: DU-145
[18] = system: MDA-MB-435
[19] = system: NCI/ADR-RES
[20] = system: PC-3

SMILES | GI50 [1] | GI50 [2] | GI50 [3] | GI50 [4] | GI50 [5] | GI50 [6] | GI50 [7] | GI50 [8] | GI50 [9] | GI50 [10] | GI50 [11] | GI50 [12] | GI50 [13] | GI50 [14] | GI50 [15] | GI50 [16] | GI50 [17] | GI50 [18] | GI50 [19] | GI50 [20]
Cc1cc(N(CCC#N)CCC#N)ccc1/C=C1\N=C(c2cc([N+](=O)[O-])ccc2Cl)N(c2cccc(Cl)c2)C1=O | > 100 µM (inactive) | > 100 µM (inactive) | > 100 µM (inactive) | > 100 µM (inactive) | > 100 µM (inactive) | > 100 µM (inactive) | > 100 µM (inactive) | 58.6 µM (inactive) | > 100 µM (inactive) | > 100 µM (inactive) | > 100 µM (inactive) | > 100 µM (inactive) | > 100 µM (inactive) | > 100 µM (inactive) | > 100 µM (inactive) |  |  |  |  | 
COC(=O)CSc1ccccc1 | 11.6 µM (inactive) | > 100 µM (inactive) | > 100 µM (inactive) | > 100 µM (inactive) | > 100 µM (inactive) | > 100 µM (inactive) | > 100 µM (inactive) |  | > 100 µM (inactive) | > 100 µM (inactive) |  | > 100 µM (inactive) | > 100 µM (inactive) | > 100 µM (inactive) | > 100 µM (inactive) | > 100 µM (inactive) |  |  |  | 
O=c1cc(-c2ccccc2)oc2cc(OCCSCCCCCCCCCCSCCOc3ccc4c(=O)cc(-c5ccccc5)oc4c3)ccc12 | 73.5 µM (inactive) |  | > 100 µM (inactive) | 51.9 µM (inactive) | > 100 µM (inactive) | > 100 µM (inactive) | > 100 µM (inactive) | 94.2 µM (inactive) |  |  | > 100 µM (inactive) | 74.1 µM (inactive) | > 100 µM (inactive) | > 100 µM (inactive) | 65.9 µM (inactive) | > 100 µM (inactive) |  |  |  | 
COc1cc(Nc2cnc3ccc(C(F)(F)F)cc3n2)cc(OC)c1OC | 13.5 µM (inactive) |  | 4.43 µM (inactive) | 23.9 µM (inactive) | 27.4 µM (inactive) |  | > 100 µM (inactive) |  |  | 32.1 µM (inactive) | > 100 µM (inactive) |  | > 100 µM (inactive) | > 100 µM (inactive) |  | 4.02 µM (inactive) |  |  |  | 
COC(=O)CSc1nnc(-c2ccc(O)c([N+](=O)[O-])c2)[nH]1 | > 100 µM (inactive) | > 100 µM (inactive) | > 100 µM (inactive) |  | > 100 µM (inactive) | > 100 µM (inactive) | > 100 µM (inactive) |  | > 100 µM (inactive) | > 100 µM (inactive) | > 100 µM (inactive) |  | > 100 µM (inactive) | > 100 µM (inactive) | > 100 µM (inactive) | > 100 µM (inactive) |  |  |  | 
O=[N+]([O-])c1ccc(Cl)cc1C1SCc2nc3ccccc3n21 (stereo not given) | 53 µM (inactive) | 23.6 µM (inactive) | 86.3 µM (inactive) | > 100 µM (inactive) | 48.3 µM (inactive) | 31.2 µM (inactive) | 27.6 µM (inactive) | 24.4 µM (inactive) | 44.4 µM (inactive) | > 100 µM (inactive) | > 100 µM (inactive) | 62.8 µM (inactive) | 54.1 µM (inactive) | 40.4 µM (inactive) | 61.8 µM (inactive) |  |  |  |  | 
COc1ccccc1CNC(=O)[C@H](Cc1ccc(O)cn1)NC(C)=O | > 100 µM (inactive) | > 100 µM (inactive) | > 100 µM (inactive) | > 100 µM (inactive) |  | > 100 µM (inactive) | > 100 µM (inactive) | > 100 µM (inactive) | > 100 µM (inactive) | > 100 µM (inactive) | > 100 µM (inactive) | > 100 µM (inactive) | > 100 µM (inactive) | > 100 µM (inactive) | > 100 µM (inactive) | > 100 µM (inactive) | > 100 µM (inactive) | > 100 µM (inactive) | > 100 µM (inactive) | > 100 µM (inactive)
COC(=O)/C(=C/c1ccc(OC)cc1)NC(=O)c1ccccc1 | > 100 µM (inactive) | > 100 µM (inactive) | > 100 µM (inactive) |  | > 100 µM (inactive) | > 100 µM (inactive) | > 100 µM (inactive) |  | > 100 µM (inactive) | > 100 µM (inactive) | > 100 µM (inactive) | > 100 µM (inactive) | > 100 µM (inactive) | > 100 µM (inactive) | > 100 µM (inactive) | > 100 µM (inactive) |  |  |  | 
O=C1/C(=C\c2ccccc2)C2/C(=C\c3ccccc3)C(=O)/C(=C\c3ccccc3)C2/C1=C\c1ccccc1 (stereo not given) | 1.22 µM (inactive) |  | 1.29 µM (inactive) | 2.4 µM (inactive) | 0.681 µM (active) | 1.43 µM (inactive) | 1.62 µM (inactive) | 0.592 µM (active) | 1.21 µM (inactive) | 2.35 µM (inactive) | 2.18 µM (inactive) | 19.7 µM (inactive) | 2.01 µM (inactive) | 1.17 µM (inactive) | 1.9 µM (inactive) | 0.316 µM (active) |  |  |  | 
COc1ccc(/C=c2/sc3n(c2=O)NC(c2ccc(Cl)cc2)NN=3)cc1 (stereo not given) | > 100 µM (inactive) |  | > 100 µM (inactive) |  | > 100 µM (inactive) | > 100 µM (inactive) | > 100 µM (inactive) | > 100 µM (inactive) | > 100 µM (inactive) | > 100 µM (inactive) | > 100 µM (inactive) | > 100 µM (inactive) | > 100 µM (inactive) | > 100 µM (inactive) | > 100 µM (inactive) | > 100 µM (inactive) |  |  |  | 
O=C(O)Cn1c(=O)[nH]c(=O)c2c1ncn2Cc1ccccc1 | > 100 µM (inactive) | > 100 µM (inactive) |  | > 100 µM (inactive) | > 100 µM (inactive) | > 100 µM (inactive) | > 100 µM (inactive) | > 100 µM (inactive) |  | > 100 µM (inactive) | > 100 µM (inactive) | > 100 µM (inactive) | > 100 µM (inactive) | > 100 µM (inactive) | > 100 µM (inactive) |  |  |  |  | 
C=CCN1/C(=C2\SC(=S)N(c3ccc(C)cc3)C2=O)Sc2c1nc[nH]c2=O | > 100 µM (inactive) | > 100 µM (inactive) |  | > 100 µM (inactive) | > 100 µM (inactive) | > 100 µM (inactive) | > 100 µM (inactive) | 59.2 µM (inactive) | 96.2 µM (inactive) | 48.3 µM (inactive) | > 100 µM (inactive) | > 100 µM (inactive) | 77.1 µM (inactive) | 79.8 µM (inactive) | > 100 µM (inactive) | 33.9 µM (inactive) |  |  |  | 
Nc1nnc2c(-c3ccccc3)n[nH]c2n1 | 62.4 µM (inactive) | 12.9 µM (inactive) | 93.5 µM (inactive) |  | 77.4 µM (inactive) | > 100 µM (inactive) | 68.7 µM (inactive) | > 100 µM (inactive) | > 100 µM (inactive) | 24.8 µM (inactive) | 91.6 µM (inactive) |  | 63 µM (inactive) |  |  | 50.6 µM (inactive) |  |  |  | 
C=C1CC2[C@H](C)C(=O)CCC2(C)C2=C1C1CCC(C(C)CCC(=C)C(C)C(=O)O)C1(C)CC2=O (stereo not given in full) | 20.4 µM (inactive) | > 100 µM (inactive) | 47 µM (inactive) | 45.4 µM (inactive) |  | > 100 µM (inactive) | 41.9 µM (inactive) | 47.1 µM (inactive) | 48.4 µM (inactive) | 97.3 µM (inactive) | > 100 µM (inactive) | 89.5 µM (inactive) | > 100 µM (inactive) | 55.1 µM (inactive) | 51.8 µM (inactive) | 17.9 µM (inactive) | 53.1 µM (inactive) | 58.5 µM (inactive) | 84.1 µM (inactive) | 32.1 µM (inactive)
COc1nc(/C=N/NC(N)=S)nc(OC)n1 | 58.3 µM (inactive) | 33.7 µM (inactive) | 47.1 µM (inactive) |  | > 100 µM (inactive) | 55.1 µM (inactive) | > 100 µM (inactive) | 75.5 µM (inactive) | > 100 µM (inactive) | 32.4 µM (inactive) | > 100 µM (inactive) | > 100 µM (inactive) | 71.6 µM (inactive) | 54.8 µM (inactive) | 35.3 µM (inactive) |  |  |  |  | 
CC(C)OP(=S)(NC(=S)c1ccccc1)OC(C)C | > 100 µM (inactive) | > 100 µM (inactive) | > 100 µM (inactive) |  | 87.3 µM (inactive) | > 100 µM (inactive) | > 100 µM (inactive) |  | > 100 µM (inactive) | > 100 µM (inactive) | > 100 µM (inactive) | > 100 µM (inactive) | > 100 µM (inactive) | > 100 µM (inactive) | > 100 µM (inactive) | > 100 µM (inactive) |  |  |  | 
COC(=O)CC(C(C(C)=O)C(=O)OCc1ccccc1)N1C(=O)OC(c2ccccc2)C1c1ccccc1 (stereo not given) | > 100 µM (inactive) |  | > 100 µM (inactive) and 89.3 µM (inactive) | 54.1 µM (inactive) | 49.1 µM (inactive) and 50.4 µM (inactive) |  | 46.9 µM (inactive) and 55.3 µM (inactive) | 38.3 µM (inactive) and 22.9 µM (inactive) |  |  | 65.9 µM (inactive) and 97.7 µM (inactive) | > 100 µM (inactive) | > 100 µM (inactive) | 96.6 µM (inactive) and 75.5 µM (inactive) | 41.1 µM (inactive) and 45.4 µM (inactive) | 78.5 µM (inactive) |  |  |  | 
Cc1nc(-c2nc(C)c(C(=O)NNC(=O)C[n+]3ccccc3)s2)sc1C(=O)NNC(=O)C[n+]1ccccc1 | 35.9 µM (inactive) | 58.6 µM (inactive) | > 100 µM (inactive) | 33.1 µM (inactive) | 91 µM (inactive) | > 100 µM (inactive) | 45.7 µM (inactive) |  |  | 37.8 µM (inactive) | > 100 µM (inactive) | 87.5 µM (inactive) | 67.5 µM (inactive) | 79.4 µM (inactive) | > 100 µM (inactive) | 66.2 µM (inactive) |  |  |  | 
